± gives the standard deviation of the averaged measurements.
Key:
Experiment in all cases: level (log10 ratio to DMSO vehicle control); higher = higher biomarker level / cell amount than vehicle control
Settings in all cases: in DMSO
Azathioprine = compound: Cn1cnc([N+](=O)[O-])c1Sc1ncnc2[nH]cnc12 [Azathioprine]
Description: (§1)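 BioMAP Diversity Plus panel of 12 human primary cell co-culture systems (3C, 4H, LPS, SAg, BT, BF4T, BE3C, CASM3C, HDF3CGF, KF3CT, MyoF, Mphg). Compounds were added 1 h before stimulation and left for 24 h (MyoF 48 h; BT 72 h for soluble read-outs or 6 d for IgG). Biomarkers were read by ELISA, cytotoxicity by SRB, PBMC viability and proliferation by Alamar Blue. Each well value was divided by the mean of 8 DMSO control wells on the same plate and log10 transformed; duplicate blinded samples were tested at 4 concentrations.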

Perfluorooctanamide = compound: NC(=O)C(F)(F)C(F)(F)C(F)(F)C(F)(F)C(F)(F)C(F)(F)C(F)(F)F [Perfluorooctanamide]
Description: as §1

[1] = compound: O=C(O)C(F)(F)C(F)(F)C(F)(F)C(F)(F)C(F)(F)C(F)(F)C(F)(F)C(F)(F)Cl [9-Chloro-perfluorononanoic acid]
Description: as §1

[2] = compound: FC(F)(F)C(F)(F)C(F)(F)C(F)(F)C(F)(F)C(F)(F)C(F)(F)CCI [1-Iodo-1H,1H,2H,2H-perfluorononane]
Description: as §1

[3] = compound: O=C(O)C(F)(F)OC(F)(F)C(F)(F)OC(F)(F)C(F)(F)C(F)(F)C(F)(F)F [Perfluoro-3,6-dioxadecanoic acid]
Description: as §1

1-(Perfluorohexyl)octane = compound: CCCCCCCCC(F)(F)C(F)(F)C(F)(F)C(F)(F)C(F)(F)C(F)(F)F [1-(Perfluorohexyl)octane]
Description: as §1

[4] = compound: O=S(=O)(O)C(F)(F)C(F)(F)C(F)(F)C(F)(F)C(F)(F)C(F)(F)C(F)(F)C(F)(F)F [Perfluorooctanesulfonic acid]
Description: as §1

| Test System | level (log10) (Azathioprine; 1400 nM) | level (log10) (Azathioprine; 4200 nM) | level (log10) (Azathioprine; 13000 nM) | level (log10) (Azathioprine; 38000 nM) | level (log10) (Perfluorooctanamide; 6700 nM) | level (log10) (Perfluorooctanamide; 20000 nM) | level (log10) (Perfluorooctanamide; 60000 nM) | level (log10) ([1]; 6700 nM) | level (log10) ([1]; 20000 nM) | level (log10) ([2]; 6700 nM) | level (log10) ([2]; 20000 nM) | level (log10) ([3]; 6700 nM) | level (log10) ([3]; 20000 nM) | level (log10) ([3]; 60000 nM) | level (log10) (1-(Perfluorohexyl)octane; 6700 nM) | level (log10) (1-(Perfluorohexyl)octane; 20000 nM) | level (log10) ([4]; 6700 nM) | level (log10) ([4]; 20000 nM) | level (log10) ([4]; 60000 nM) |
| --- | --- | --- | --- | --- | --- | --- | --- | --- | --- | --- | --- | --- | --- | --- | --- | --- | --- | --- | --- |
| 3C:CD106/VCAM-1 | 0.006 ± 0.017 | -0.0165 ± 0.0078 | -0.0245 ± 0.022 | -0.0595 ± 0.036 | -0.023 ± 0.0028 | -0.005 ± 0.0099 | -0.004 ± 0.0057 | -0.005 ± 0.0014 | -0.001 ± 0.021 | -0.015 ± 0.014 | -0.0115 ± 0.0021 | 0.0005 ± 0.013 | -0.0035 ± 0.019 | -0.0135 ± 0.021 | -0.009 ± 0.0057 | 0.0045 ± 0.0092 | 0.0005 ± 0.026 | 0.0045 ± 0.035 | 0.0295 ± 0.015 |
| 3C:CD142/Tissue Factor | 0.02 ± 0.024 | 0.0255 ± 0.046 | 0.042 ± 0.051 | 0.042 ± 0.02 | 0.029 ± 0.033 | 0.009 ± 0.013 | 0.0245 ± 0.06 | -0.008 ± 0.057 | 0.025 ± 0.0057 | 0.01 ± 0.0071 | 0.0065 ± 0.0078 | -0.0245 ± 0.059 | 0.0095 ± 0.015 | -0.074 ± 0.024 | -0.0025 ± 0.0078 | 0.0215 ± 0.023 | -0.0185 ± 0.07 | -0.0285 ± 0.073 | 0.0315 ± 0.067 |
| MyoF:Collagen III | -0.019 ± 0.021 | -0.0135 ± 0.016 | -0.0275 ± 0.0064 | -0.0115 ± 0.0092 | -0.0005 ± 0.029 | 0.0045 ± 0.033 | 0.002 ± 0.013 | -0.033 ± 0.027 | -0.498 ± 0.0085 | 0.0145 ± 0.0021 | -0.0055 ± 0.03 | -0.024 ± 0.0057 | -0.0445 ± 0.0035 | -0.317 ± 0.014 | 0.019 ± 0.03 | -0.016 ± 0.0014 | -0.0265 ± 0.026 | -0.025 ± 0.0071 | -0.0385 ± 0.012 |
| MyoF:MMP-1 | 0.0065 ± 0.047 | 0.0165 ± 0.019 | -0.0215 ± 0.021 | 0.0315 ± 0.0021 | -0.0075 ± 0.011 | -0.013 ± 0.04 | -0.0045 ± 0.026 | -0.028 ± 0.03 | -0.0585 ± 0.0064 | -0.012 ± 0.013 | -0.0145 ± 0.025 | -0.003 ± 0.0085 | -0.03 ± 0.024 | 0.0505 ± 0.0064 | -0.002 ± 0.017 | -0.01 ± 0.0085 | -0.031 ± 0.0014 | -0.031 ± 0.013 | 0.038 ± 0.048 |
| lMphg:CD62E/E-Selectin | -0.037 ± 0.045 | -0.031 ± 0.048 | -0.064 ± 0.0085 | -0.148 ± 0.051 | 0.022 ± 0.048 | 0.0285 ± 0.043 | -0.0165 ± 0.07 | 0.01 ± 0.0099 | 0.017 ± 0.0042 | 0.016 ± 0.02 | 0.001 ± 0.0099 | 0.0095 ± 0.016 | -0.0035 ± 0.037 | 0.0135 ± 0.015 | 0.0205 ± 0.012 | -0.0145 ± 0.03 | -0.0015 ± 0.023 | 0.0385 ± 0.013 | 0.186 ± 0.029 |
| CASM3C:CXCL8/IL-8 | -0.0095 ± 0.0064 | -0.023 ± 0.0085 | -0.023 ± 0.0057 | -0.009 ± 0.024 | 0.013 ± 0.025 | 0.013 ± 0.016 | 0.044 ± 0.014 | 0.0045 ± 0.00071 | 0.0175 ± 0.016 | 0.004 ± 0.0042 | 0.004 ± 0.0028 | -0.0005 ± 0.013 | -0.008 | 0.023 ± 0.028 | -0.001 ± 0.017 | 0.006 ± 0.0099 | 0.001 ± 0.038 | 0.0045 ± 0.025 | 0.0485 ± 0.0021 |
| HDF3CGF:CCL2/MCP-1 | -0.0095 ± 0.018 | -0.005 ± 0.0057 | -0.0255 ± 0.0035 | -0.043 ± 0.024 | -0.023 ± 0.0057 | -0.0145 ± 0.022 | -0.033 ± 0.0014 | 0.0205 ± 0.022 | -0.013 ± 0.021 | -0.034 ± 0.017 | -0.018 ± 0.016 | 0.0135 ± 0.018 | -0.017 ± 0.0071 | -0.043 ± 0.0014 | -0.0185 ± 0.005 | -0.004 ± 0.013 | -0.005 ± 0.0042 | -0.013 ± 0.0071 | 0.01 ± 0.033 |
| MyoF:CXCL8/IL-8 | 0.009 ± 0.014 | 0.023 ± 0.017 | 0.027 ± 0.02 | 0.0395 ± 0.015 | -0.01 ± 0.0071 | 0.0135 ± 0.023 | 0.03 ± 0.014 | 0.0025 ± 0.015 | -0.06 ± 0.0057 | 0.0195 ± 0.0064 | 0.0335 ± 0.025 | 0.011 ± 0.011 | 0.0335 ± 0.013 | 0.0145 ± 0.0021 | 0.0015 ± 0.029 | 0.028 ± 0.011 | -0.057 ± 0.0028 | -0.0755 ± 0.013 | -0.025 ± 0.017 |
| KF3CT:MMP-9 | -0.008 ± 0.011 | 0.0015 ± 0.0064 | -0.0255 ± 0.0064 | -0.0375 ± 0.011 | -0.011 ± 0.017 | -0.0265 ± 0.0092 | -0.0905 ± 0.0021 | -0.0345 ± 0.0021 | -0.106 ± 0.0071 | -0.006 ± 0.0042 | 0.0165 ± 0.013 | -0.012 ± 0.014 | 0.005 ± 0.034 | 0.0215 ± 0.0078 | -0.006 ± 0.024 | 0.0075 ± 0.029 | -0.0195 ± 0.013 | -0.013 | -0.0705 ± 0.015 |
| BE3C:tPA | -0.005 ± 0.078 | -0.0285 ± 0.083 | -0.108 ± 0.083 | -0.236 ± 0.079 | 0.008 ± 0.018 | 0.0385 ± 0.011 | 0.049 ± 0.05 | 0.0195 ± 0.023 | -0.0985 ± 0.023 | 0.004 ± 0.035 | 0.011 ± 0.035 | -0.0345 ± 0.029 | -0.09 ± 0.04 | -0.156 ± 0.018 | -0.0015 ± 0.03 | 0 ± 0.033 | 0.119 ± 0.013 | -0.09 ± 0.0099 | -0.253 ± 0.025 |
| lMphg:CD69 | 0.027 ± 0.013 | -0.0205 ± 0.029 | -0.004 ± 0.0028 | 0.022 ± 0.011 | 0.0175 ± 0.018 | -0.005 ± 0.025 | -0.0825 ± 0.074 | -0.049 ± 0.024 | -0.053 ± 0.016 | -0.0025 ± 0.023 | -0.053 ± 0.076 | -0.0505 ± 0.021 | -0.0425 ± 0.0021 | -0.196 ± 0.063 | -0.0265 ± 0.0078 | -0.0345 ± 0.015 | -0.046 | -0.0585 ± 0.029 | -0.102 ± 0.091 |
| lMphg:CD106/VCAM-1 | 0 ± 0.0057 | -0.003 ± 0.0085 | -0.036 | -0.0835 ± 0.025 | -0.021 ± 0.0071 | 0.006 ± 0.0071 | 0.0435 ± 0.012 | -0.011 ± 0.0099 | -0.016 ± 0.0071 | -0.009 ± 0.04 | -0.039 ± 0.075 | -0.004 ± 0.018 | -0.0055 ± 0.021 | -0.0585 ± 0.039 | -0.0105 ± 0.012 | -0.035 ± 0.017 | -0.009 ± 0.0099 | -0.005 ± 0.013 | -0.058 ± 0.04 |
| CASM3C:Proliferation | -0.0225 ± 0.037 | -0.0225 ± 0.005 | -0.0785 ± 0.012 | -0.147 ± 0.028 | -0.0135 ± 0.005 | -0.036 ± 0.027 | -0.0415 ± 0.015 | -0.016 ± 0.02 | 0.004 ± 0.025 | -0.001 | 0.0105 ± 0.04 | 0.0135 ± 0.0035 | -0.0165 ± 0.029 | 0.0015 ± 0.018 | -0.0005 ± 0.067 | 0.0175 ± 0.046 | 0.006 ± 0.042 | 0.0055 ± 0.022 | 0.057 ± 0.02 |
| BE3C:Keratin 8/18 | -0.009 ± 0.033 | 0.012 ± 0.014 | -0.02 ± 0.047 | -0.0095 ± 0.021 | -0.001 ± 0.0085 | -0.009 ± 0.0028 | -0.0105 ± 0.0078 | -0.0025 ± 0.015 | 0.0095 ± 0.0092 | -0.005 ± 0.017 | -0.007 ± 0.0085 | -0.0075 ± 0.013 | -0.0135 ± 0.026 | 0.027 ± 0.0042 | 0.011 ± 0.0071 | 0.004 ± 0.054 | 0.0205 ± 0.0021 | 0.016 ± 0.011 | -0.073 ± 0.04 |
| 3C:CD54/ICAM-1 | 0.0035 ± 0.005 | -0.014 ± 0.031 | -0.0085 ± 0.0092 | -0.016 ± 0.013 | -0.012 ± 0.011 | -0.003 ± 0.013 | 0.0335 ± 0.012 | -0.0075 ± 0.0092 | -0.0085 ± 0.019 | -0.0115 ± 0.00071 | 0.0025 ± 0.016 | -0.003 ± 0.028 | -0.0025 ± 0.018 | 0.019 ± 0.011 | 0.0025 ± 0.013 | 0.0165 ± 0.005 | 0.004 ± 0.023 | 0.0185 ± 0.019 | 0.071 ± 0.024 |

From the supplement of paper PMC10331698
